Each structure is given as a SMILES string. The source made the active and inactive calls. The rule behind the calls is not given here.

Data set [1] deals with RAW264.7. Description: Antiinflammatory activity against LPS-induced mouse RAW264.7 cells assessed as decrease in IL-6 mRNA expression at 10 uM incubated for 8 hrs by RT-PCR analysis. The class given is functional, cell-based.
The test system of data set [2] is RAW264.7. Briefly: Antiinflammatory activity against LPS-induced mouse RAW264.7 cells assessed as decrease in IL-1beta mRNA expression at 10 uM incubated for 8 hrs by RT-PCR analysis. The class given is functional, cell-based.
Data set [3] has as its system RAW264.7. Briefly: Antiinflammatory activity against LPS-induced mouse RAW264.7 cells assessed as decrease in TNF-alpha mRNA expression at 10 uM incubated for 8 hrs by RT-PCR analysis. The class given is functional, cell-based.
For data set [4], the system named is RAW264.7. Briefly: Cytotoxicity against mouse RAW264.7 cells assessed as reduction in cell viability at 60 uM measured after 24 hrs by MTT assay. The class given is toxicity, cell-based. Conditions: raw264.7, 24 h. In general terms: Tetrazolium assays rely on reduction of a dye to a coloured formazan, in cell work by metabolically active cells.
Data set [5] deals with RAW264.7. Briefly: Antiinflammatory activity against LPS-induced mouse RAW264.7 cells assessed as downregulation of PI3K level incubated for 8 hrs by Western blot analysis. Type of data set: functional, cell-based. The note with it: dose <= 20.0 µM. For orientation: A western blot detects proteins with antibodies after separation by electrophoresis.
Data set [6] relates to RAW264.7. Description: Antiinflammatory activity against LPS-induced mouse RAW264.7 cells assessed as decrease in IkappaBalpha level incubated for 8 hrs by DAPI staining based immunofluorescence analysis. Conditions: dose <= 20.0 µM. The class given is functional, cell-based.
The test system of data set [7] is RAW264.7. Description: Antiinflammatory activity against LPS-induced mouse RAW264.7 cells assessed as decrease in nuclear translocation incubated for 8 hrs by Western blot analysis. The class given is functional, cell-based. The note with it: dose <= 20.0 µM.
Data set [8] relates to RAW264.7. Description: Antiinflammatory activity against LPS-induced mouse RAW264.7 cells transfected with AKT shRNA assessed as decrease in IL-1beta expression incubated for 8 hrs by Western blot analysis. The class given is functional, cell-based. Conditions: dose <= 20.0 µM.
Data set [9] concerns RAW264.7. Description: Antiinflammatory activity against LPS-induced mouse RAW264.7 cells assessed as decrease in IkappaBalpha level incubated for 8 hrs by Western blot analysis. The class given is functional, cell-based. The note with it: dose <= 20.0 µM.
Data set [10] deals with RAW264.7. Description: Antiinflammatory activity against LPS-induced mouse RAW264.7 cells assessed as decrease in NF-kappaB level incubated for 8 hrs by DAPI staining based immunofluorescence analysis. Type of data set: functional, cell-based. Conditions: dose <= 20.0 µM.
Data set [11] relates to RAW264.7. Briefly: Antiinflammatory activity against LPS-induced mouse RAW264.7 cells assessed as downregulation of AKT level incubated for 8 hrs by Western blot analysis. Type of data set: functional, cell-based. Conditions: dose <= 20.0 µM.
For data set [12], the system named is RAW264.7. Description: Antiinflammatory activity against LPS-induced mouse RAW264.7 cells transfected with AKT shRNA assessed as decrease in IL-6 expression incubated for 8 hrs by Western blot analysis. Type of data set: functional, cell-based. Conditions: dose <= 20.0 µM.
In data set [13] the test system is Mus musculus. Briefly: Antiinflammatory activity against LPS-induced […] C57BL/6 mouse model assessed as reduction in TNF-alpha mRNA expression in lung at 5 to 25 mg/kg, ip incubated for 24 hrs by RT-PCR analysis. Type of data set: functional, organism-based. Conditions: dose 5-25 mg/kg.
Data set [14] relates to Mus musculus. Briefly: Antiinflammatory activity against LPS-induced […] in ip dosed C57BL/6 mouse model assessed as increase in SOD level in serum incubated for 24 hrs. Conditions: dose 5-25 mg/kg. The class given is functional, organism-based.
Data set [15] relates to Mus musculus. Description: Antiinflammatory activity against LPS-induced […] in ip dosed C57BL/6 mouse model assessed as reduction in MDA level in serum incubated for 24 hrs. The class given is functional, organism-based. Conditions: dose 5-25 mg/kg.
The test system of data set [16] is Mus musculus. Description: In vivo inhibition of PI3K-AKT phosphorylation in LPS-induced […] C57BL/6 mouse model at 5 to 25 mg/kg, ip measured for 24 hrs by Immunohistochemistry analysis. The class given is functional, organism-based. The note with it: dose 5-25 mg/kg.
Data set [17] relates to Mus musculus. Description: Antiinflammatory activity against LPS-induced […] C57BL/6 mouse model assessed as reduction in IL-6 mRNA expression in lung at 5 to 25 mg/kg, ip incubated for 24 hrs by RT-PCR analysis. The class given is functional, organism-based. The note with it: dose 5-25 mg/kg.
For data set [18], the system named is RAW264.7. Briefly: Antiinflammatory activity against LPS-induced mouse RAW264.7 cells transfected with AKT shRNA assessed as decrease in TNF-alpha expression incubated for 8 hrs by Western blot analysis. Type of data set: functional, cell-based. Conditions: dose <= 20.0 µM.
Data set [19] deals with RAW264.7. Briefly: Antiinflammatory activity against LPS-induced mouse RAW264.7 cells assessed as inhibition of NO release incubated for 8 hrs […]. The class given is functional, cell-based. Conditions: dose <= 20.0 µM.
In data set [20] the test system is Mus musculus. Description: Antiinflammatory activity against LPS-induced […] C57BL/6 mouse model assessed as reduction in IL-1beta mRNA expression in lung at 5 to 25 mg/kg, ip incubated for 24 hrs by RT-PCR analysis. The class given is functional, organism-based. Conditions: dose 5-25 mg/kg.
Data set [21] deals with RAW264.7. Briefly: Antiinflammatory activity against mouse RAW264.7 cells assessed as reduction in LPS-induced ROS production incubated for 8 hrs by DCFH-DA staining based flow cytometry analysis. Conditions: dose <= 20.0 µM. Type of data set: functional, cell-based. (In general: In flow cytometry, cells or beads pass a laser one at a time.)
Data set [22] has as its system RAW264.7. Briefly: Antiinflammatory activity against LPS-induced mouse RAW264.7 cells assessed as downregulation of total PI3K level incubated for 8 hrs by Western blot analysis. Conditions: dose <= 20.0 µM. Type of data set: functional, cell-based.
The subject of data set [23] is RAW264.7. Briefly: Antiinflammatory activity against LPS-induced mouse RAW264.7 cells assessed as decrease in TNF-alpha mRNA expression incubated for 8 hrs by RT-PCR analysis. Type of data set: functional, cell-based. Conditions: dose <= 20.0 µM.
Data set [24] deals with RAW264.7. Briefly: Antiinflammatory activity against LPS-induced mouse RAW264.7 cells assessed as downregulation of total AKT level incubated for 8 hrs by Western blot analysis. The class given is functional, cell-based. Conditions: dose <= 20.0 µM.
The subject of data set [25] is RAW264.7. Description: Antiinflammatory activity against LPS-induced mouse RAW264.7 cells assessed as suppression of iNOS mRNA expression incubated for 8 hrs by RT-PCR analysis. Type of data set: functional, cell-based. Conditions: dose <= 20.0 µM.
Data set [26] deals with Mus musculus. Description: Antiinflammatory activity against LPS-induced […] C57BL/6 mouse model assessed as reduction in lung injury score at 5 to 25 mg/kg, ip incubated for 24 hrs by H and E staining based analysis. The class given is functional, organism-based. The note with it: dose 5-25 mg/kg.
In data set [27] the test system is RAW264.7. Description: Antiinflammatory activity against LPS-induced mouse RAW264.7 cells assessed as decrease in IL-1beta mRNA expression incubated for 8 hrs by RT-PCR analysis. The class given is functional, cell-based. The note with it: dose <= 20.0 µM.
For data set [28], the system named is RAW264.7. Briefly: Antiinflammatory activity against LPS-induced mouse RAW264.7 cells assessed as decrease in IL-6 mRNA expression incubated for 8 hrs by RT-PCR analysis. Type of data set: functional, cell-based. Conditions: dose <= 20.0 µM.
The subject of data set [29] is RAW264.7. Description: Antiinflammatory activity against LPS-induced mouse RAW264.7 cells assessed as decrease in NF-kappaB level incubated for 8 hrs by Western blot analysis. Type of data set: functional, cell-based. The note with it: dose <= 20.0 µM.
Data set [30] relates to Mus musculus. Description: Antiinflammatory activity against LPS-induced […] C57BL/6 mouse model assessed as reduction IkappaBalpha level in lung at 5 to 25 mg/kg, ip incubated for 24 hrs by Western blot analysis. The class given is functional, organism-based. The note with it: dose 5-25 mg/kg.
The subject of data set [31] is Mus musculus. Briefly: In vivo inhibition of PI3K-AKT phosphorylation in LPS-induced […] C57BL/6 mouse model at 5 to 25 mg/kg, ip measured for 24 hrs by Western blot analysis. Conditions: dose 5-25 mg/kg. The class given is functional, organism-based.
For data set [32], the system named is RAW264.7. Description: Antiinflammatory activity against LPS-induced mouse RAW264.7 cells assessed as decrease in nuclear translocation incubated for 8 hrs by DAPI staining based immunofluorescence analysis. Type of data set: functional, cell-based. The note with it: dose <= 20.0 µM.

In the case of `C[C@@H]1C[C@H]2[C@@H]3CCC4=CC(=O)C=C[C@]4(C)[C@@]3(F)[C@@H](O)C[C@]2(C)[C@@]1(O)C(=O)CO`, the outcome with RAW264.7 [1], in the data set with RAW264.7 [2] and with RAW264.7 [3] was Active.
Consider `COc1c(C(C)C)cc2c(=O)cc3c(cc2c1OC)C=CC(O)C3(C)C` (configuration not stated), for which, in the data set with RAW264.7 [4], the Activity entry is “Toxic”.
In the case of `CC(C)c1cc2c(c3c1OC(C)(C)O3)C=C1C=CC(=O)C(C)(C)C1=CC2`, the Activity result in the data set on RAW264.7 [4] is “Toxic”.
The same measure, in the same setting: to `CC(C)c1cc2c(c(O)c1O)C=C1C=CC(=O)C(C)(C)C1CC2=O` (configuration not stated) belongs “Toxic”.
For `COc1c(C(C)C)cc2c(=O)cc3c(cc2c1OC)C=CC(=O)C3(C)C`, the Activity entry with RAW264.7 [5], in the data set on RAW264.7 [6], in the data set with RAW264.7 [7], with RAW264.7 [8], with RAW264.7 [9] and in the data set with RAW264.7 [10] was “Dose-Dependent Effect” each time. Also, the Activity result in the data set on RAW264.7 [11], with RAW264.7 [12], with Mus musculus [14], in the data set with Mus musculus [15], in the data set on RAW264.7 [18] and with RAW264.7 [19] was “Dose-Dependent Effect” throughout. Moreover, the Activity entry with RAW264.7 [21], with RAW264.7 [22], with RAW264.7 [23], with RAW264.7 [24], in the data set with RAW264.7 [25] and in the data set on RAW264.7 [27] was “Dose-Dependent Effect” each time. Further, the Activity entry in the data set with RAW264.7 [28], in the data set on RAW264.7 [29] and with RAW264.7 [32] was “Dose-Dependent Effect” each time. Besides, the outcome with Mus musculus [13], with Mus musculus [17], in the data set with RAW264.7 [1], in the data set on Mus musculus [20], in the data set with RAW264.7 [2] and in the data set on Mus musculus [26] was Active. The result with Mus musculus [30] and in the data set with RAW264.7 [3] was Active. Also, the inhibition entry with Mus musculus [16] and in the data set on Mus musculus [31] was “Active” throughout.

The values are drawn from ChEMBL document CHEMBL5625256, “Rapid access to icetexane diterpenes: Their protective effects against lipopolysaccharides-induced acute lung injury via PI3K/AKT/NF-κB axis in macrophages” (Eur J Med Chem, 2023).
